Measured values taken from patent publication US11167012B2, “Peptide inhibition of CCR3-mediated diseases or conditions” (The Board of Trustees of the University of Illinois, priority 2015, dated 2021).
“Also recorded” adds a separate entry of the source. Where a SMILES comes first, the peptide text is derived from it. The star is where a group is joined. X1 = NC(=O)CCOCCOCCOCCOCCOCCOCCOCCOCCOCCOCCOCCOCCOCCOCCOCCOCCOCCOCCOCCOCCOCCOCCOCCOCCOCCOCCOCCOCCN*

Experiments:
[1] = Dynamic light scattering of peptide solution; type: physicochemical; settings: aqueous environment; 0.4 mg/ml in PBS
Description: As indicated herein, the CCR3 peptide analog self-assembles in aqueous medium into highly homogenous nanoparticles. Dynamic light scattering analyses indicate that the radius of the instant nanoparticles is in the range of 1 to 100 nm, more specifically about 8 nm (FIG. 1). Based upon the size and composition, the nanoparticles facilitate translocation of the peptide through the plasma membrane and protect the peptide from degradation in the blood/serum or other body fluids. Accordingly, this invention also provides a nanoparticle composition containing the CC3 peptide analog as well as methods of using the nanoparticle composition to antagonize CCR3 and in the treatment of inflammatory diseases such as asthma, and eosinophilic esophagitis.

CCR3 [2] = target: T1, CCR3 (Homo sapiens, UniProt P51677); assay: Chemotaxis assay (Transwell), blood eosinophils; type: cell-based; set-up: host or cells: AML14.3D10-CCR3 (eosinophilic myelocytic cell line, kept under G418); settings: for IC90: blood eosinophils, 4 hours
T1 sequence (P51677 1-355): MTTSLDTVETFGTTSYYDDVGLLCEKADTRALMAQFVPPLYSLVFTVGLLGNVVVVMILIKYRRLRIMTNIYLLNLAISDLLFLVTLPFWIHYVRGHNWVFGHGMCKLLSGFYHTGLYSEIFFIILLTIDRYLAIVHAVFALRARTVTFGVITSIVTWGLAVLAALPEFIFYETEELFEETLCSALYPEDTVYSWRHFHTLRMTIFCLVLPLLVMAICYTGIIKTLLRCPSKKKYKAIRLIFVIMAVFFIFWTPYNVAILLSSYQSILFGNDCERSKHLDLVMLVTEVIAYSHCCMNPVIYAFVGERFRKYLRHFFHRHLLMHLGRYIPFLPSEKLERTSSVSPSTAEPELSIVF
Description: Blood eosinophils were purified from anti-coagulated blood drawn from mild allergic asthmatic subjects. Peripheral blood was subjected to density gradient centrifugation over FICOLL-PAQUE® Plus (GE Healthcare, Pittsburgh, Pa.) media to obtain a pellet containing erythrocytes and granulocytes. After erythrocyte lysis via hypotonic shock, eosinophils were purified by negative selection using a cocktail of antibody-conjugated magnetic beads against non-eosinophils (Miltenyi Biotec, Auburn, Calif.). The eosinophils were resuspended in X-VIVO 10 without phenol red. The purity and viability of the eosinophils obtained was routinely >97% as assessed by Hema III and trypan blue staining, respectively.
Cell migration was determined using a 96-well TRANSWELL® system (Corning, Tewksbury, Mass.). Briefly, 200 μl chemoattractant or control medium was added to the lower chamber while 100 μl cells were added to the upper chamber. The two chambers were separated by a polycarbonate filter with 5 μm pores. For AML14.3D10-CCR3 cells, 2×10^5 cells/well were resuspended in RPMI-1640+0.1% BSA and allowed to migrate for 4 hours at 37° C. […] Migrated cells were counted using a Beckman QUANTA SC flow cytometer. All experiments were performed in duplicate. Checkerboard analysis was done to distinguish chemotaxis from chemokinesis.
Primary eosinophils and the stable CCR3+eosinophilic myelocytic cell line, AML14.3D10-CCR3 (Daugherty, et al. (1996) J. Exp. Med. 183:2349-2354) undergo CCR3-mediated chemotaxis induced by multiple chemokines including eotaxin/CCL11, RANTES/CCL5, MCP-4/CCL13, and MEC/CCL28 (Daugherty, et al. (1996) J. Exp. Med. 183:2349-2354; Pan, et al. (2000) J. Immunol. 165:2943-2949). […] In addition, R3-2-1 inhibits chemotaxis of both AML14.3D10-CCR3 and blood eosinophils induced by CCL11/Eotaxin-1, CCL24/Eotaxin-2, and CCL26/Eotaxin-3 in a dose-dependent fashion (Table 3).

Gαi = Gαi activation, pull-down of GTP-bound Gαi in AML14.3D10-CCR3 cells; type: cell-based, human; settings: 10 μM, 8 nM CCL11
Procedure: GTP-bound Gal was detected using a commercial Gαi assay kit (Abcam, Cambridge, Mass.) with modifications. Briefly, AML14.3D10-CCR3 cells were serum-starved for 16 hours before being pretreated with […] pertussis toxin for 2 hours, 10 μM R3-2-1 for 30 minutes, or with vehicle control. Pretreated cells were then stimulated with 8 nM CCL11 or medium for 1 minute. The reaction was stopped by adding ice cold PBS. Ten (10) million cells were used for each condition. Washed cells were lysed with 1× lysis buffer following manufacturer instructions. For pull-down of active Gαi, mouse anti-GTP bound Gαi antibody was conjugated to DYNABEADS Protein G (Life Technologies, Carlsbad, Calif.) for 15 minutes at room temperature. Conjugated beads were washed 3 times with Tris-buffered saline+TWEEN® polysorbate (TBST) and incubated with cell lysates for 20 minutes at room temperature. After washing with TBST, bound proteins were eluted by boiling the beads in 2×SDS buffer for 5 minutes. Eluates were resolved by SDS-PAGE and immunoblotted using a polyclonal rabbit anti-total Gαi antibody (Cell Signaling Technology).

CCR3 [3] = target: T1, CCR3; assay: CCR3 surface expression and internalization by flow cytometry, AML14.3D10-CCR3 cells; type: cell-based; set-up: host or cells: AML14.3D10-CCR3 (eosinophilic myelocytic cell line, kept under G418)
Procedure: Error bars represent SEM. *p<0.05, compared to untreated cells; n=3.
To assess surface expression of CCR3, cells were stained using PE-conjugated anti-human CCR3 antibody (clone 5E8, BioLegend) or PE-conjugated isotype-matched control after blocking with 10% human AB serum. To determine ligand-induced CCR3 internalization, cells were incubated with various chemokines for 1 hour at 37° C., washed once in staining buffer (PBS+0.5% BSA+0.1% NaN3) before being stained as above. After antibody staining, cells were fixed in 2% paraformaldehyde and analyzed on a QUANTA SC flow cytometer (Beckman Coulter, Indianapolis, Ind.).

[4] = system: eosinophil recruitment into the esophageal epithelium; assay: Mouse model of EoE, oxazalone-challenged L2-IL5 transgenic mice; type: in vivo; settings: i.v., 24 hours after last OXA challenge
Procedure: Skin sensitized L2-IL5 transgenic mice received topical esophageal oxazalone (OXA) challenges by gavage (i.e.) on days 5, 8 and 12 (FIG. 5A). R3-2-1 peptide nanoparticles, control peptide (R3-2-3) or CCR3 inhibitor UCB35625 (UCB) were given immediately before on days 5, 8, 10 and 12 (FIG. 5A). Esophageal eosinophilia was assessed 24 hours after the last OXA challenge and treatment (day 13). […] Error bars represent SEM.
Mice were treated i.v. with R3-2-1 peptide, scrambled R3-2-3 control peptide ([…]-PEG27-NH2; SEQ ID NO:24), or the allosteric non-selective CCR3 inhibitor, UCB35625. Eosinophil recruitment into the esophageal epithelium was assessed 24 hours after the last OXA challenge by counting eosinophils in 9 high power fields (hpf) covering the total esophagus or 3 hpf covering the distal esophagus.

Structure (SMILES): CC[C@H](C)[C@H](NC(=O)[C@H](Cc1c[nH]c2ccccc12)NC(=O)[C@H](Cc1ccccc1)NC(=O)[C@@H]1CCCN1C(=O)[C@H](CC(C)C)NC(=O)[C@@H](NC(=O)[C@@H](NC(=O)[C@H](CC(C)C)NC(=O)[C@H](Cc1ccccc1)NC(=O)[C@H](CC(C)C)NC(=O)[C@@H](N)CC(C)C)C(C)C)[C@@H](C)O)C(=O)N[C@@H](Cc1c[nH]cn1)C(=O)N[C@@H](Cc1ccc(O)cc1)C(=O)N[C@H](C(=O)N[C@@H](CCCNC(=N)N)C(=O)NCC(=O)N[C@@H](Cc1c[nH]cn1)C(=O)N[C@@H](CC(N)=O)C(=O)N[C@@H](Cc1c[nH]c2ccccc12)C(=O)N[C@H](C(=O)N[C@@H](Cc1ccccc1)C(=O)NCC(=O)N[C@@H](Cc1c[nH]cn1)C(=O)N[C@@H](CC(=O)O)C(=O)N[C@@H](CC(=O)O)C(=O)N[C@@H](CC(=O)O)C(=O)NCCOCCOCCOCCOCCOCCOCCOCCOCCOCCOCCOCCOCCOCCOCCOCCOCCOCCOCCOCCOCCOCCOCCOCCOCCOCCOCCOCCOCCC(N)=O)C(C)C)C(C)C [Peptide R3-2-1] (H-LLFLVTLPFWIHYVRGHNWVFGHDDD-X1; N-terminus assumed)
- hydrodynamic radius of self-assembled nanospheres [1]: approximately 8 nm
- inhibition of chemotaxis of blood eosinophils (CCR3 [2]; 2, 10 or 50 μM): similarly able to inhibit chemotaxis of blood eosinophils
- IC50 for inhibition of chemotaxis, in words (CCR3 [2]; CCL11-, CCL24-, CCL26-induced chemotaxis, summary of Table 3): low nanomolar range
- IC90 (CCR3 [2]; chemotaxis to CCL11/Eotaxin-1 (12 nM)): 760 ± 100 nM
- IC90 (CCR3 [2]; chemotaxis to CCL24/Eotaxin-2 (20 nM)): 730 ± 100 nM
- IC90 (CCR3 [2]; chemotaxis to CCL26/Eotaxin-3 (100 nM)): 1100 ± 150 nM
- activation of Gαi (GTP-bound form) (Gαi): inhibit the activation of Gαi
- CCR3 internalization or surface accumulation on prolonged treatment (CCR3 [3]; 1 μM for 24, 48 or 72 hour, with or without CCL11 (12 nM)): promotes CCR3 internalization
- CCL11-induced receptor internalization (CCR3 [3]; 1 μM, added concurrently with 12 nM CCL11): neither R3-2-1 (1 μM) nor R3-2-3 (1 μM) interfere with CCL11-induced receptor internalization
- CCL11-induced CCR3 endocytosis (CCR3 [3]; 2 or 10 μM): does not inhibit CCL11-induced CCR3 endocytosis
- surface CCR3 expression in the absence of CCR3 ligand (CCR3 [3]; AML14.3D10-CCR3 cells, significant at 1 μM): significantly decreases surface CCR3 expression
- eosinophil recruitment into distal and total esophageal epithelium [4]: significantly blocked eosinophil recruitment; also recorded: significantly reduced eosinophil recruitment
